Structures can show the parent of a compound that is named as a salt.

For assay [1], the system named is spontaneous motor activity. As to the kind of experiment: spontaneous motor activity in mice (circular actophotometers, activity counts). The conditions noted are these: for hyperactive response: same conditions, 0.32-32 mg./kg. i.p. It is filed as in vivo, mouse. The protocol: (§1) On the other hand, the activity of the compounds of the present invention, as psychomotor stimulants, is based on a variety of tests, including (1) a study of their motor activity in mice and (2) a measurement of their ability to influence the loss of avoidance behavior in rats trained on a non-discriminated (Sidman) avoidance schedule.
A total of seven mice was employed at each dose level tested (viz., at 0.32, 1.0, 3.2, 10 and 32 mg./kg., i.p., respectively) and these mice were separated one to an activity cage. After an initial 1/2 hour exposure period (for acclimation purposes), each animal in the cage was treated with a sample of the drug intraperitoneally and immediately thereafter returned to said cage, with activity counts every 1/2 hour being recorded from that point on.

Assay [2] is described as follows: psychotropic (antidepressant, psychomotor stimulant) activity and side effects of the compounds, general statements. It is filed as in vivo. The conditions noted are these: general statement; compounds and their hydrochloride acid addition salts.
In assay [3] the test system is non-discriminated (Sidman) avoidance behavior. Briefly: non-discriminated (Sidman) avoidance behavior in rats, response rates. It is filed as in vivo, rat. The conditions noted are these: 5 and 10 mg./kg. i.p.
Excerpt: as §1
Eight mature male rats were trained in Lehigh Valley automatic multiple-operant conditioning chambers to avoid a 2.0 mA electric shock that would last for 0.75 second, or terminate sooner if the rat lever became activated during the shock. In these tests, lever presses postponed the onset of shock for an initial period of 30 seconds, while only 10 seconds elapsed between shocks if no intervening response was elicited. The rats were run for a 40-minute control period before receiving the drug and then for approximately 2.5 hours after each treatment.

`CN[C@H]1CC[C@H](c2ccccc2)c2ccccc21` [Trans-l-isomer of Example III, trans-l-N-methyl-4-phenyl-1,2,3,4-tetrahydro-1-naphthylamine hydrochloride]: the stimulant effect result in assay [1] (tested at 10 and 32 mg./kg. i.p.) is “little evidence of a stimulant effect”. Consider `CCN[C@@H]1CC[C@@H](c2ccccc2)c2ccccc21` (relative stereo) [trans-dl-N-ethyl-4-phenyl-1,2,3,4-tetrahydro-1-naphthylamine], for which the antidepressant activity entry in assay [2] is “markedly high degree of antidepressant activity”. Regarding `N[C@@H]1CC[C@@H](c2ccccc2)c2ccccc21` (relative stereo) [trans-dl-4-phenyl-1,2,3,4-tetrahydro-1-naphthylamine], the antidepressant activity result in assay [2] is reported as “markedly high degree of antidepressant activity”. On the same count and under the same terms, with `c1ccc([C@@H]2CC[C@@H](NC3CC3)c3ccccc32)cc1` (relative stereo) [trans-dl-N-cyclopropyl-4-phenyl-1,2,3,4-tetrahydro-1-naphthylamine] the entry was “markedly high degree of antidepressant activity”; with `CN[C@@H]1CC[C@@H](c2ccccc2)c2ccccc21` [trans-d-N-methyl-4-phenyl-1,2,3,4-tetrahydro-1-naphthylamine], “markedly high degree of antidepressant activity”. Take `CNCCCC1c2ccccc2C=Cc2ccccc21` [protriptlyine, reference compound]: in assay [1], the hyperactive response entry is recorded as “failed to elicit any hyperactive response whatsoever”. Turning to `CN(C)[C@@H]1CC[C@@H](c2ccccc2)c2ccccc21` (relative stereo) [trans-dl-N,N-dimethyl-4-phenyl-1,2,3,4-tetrahydro-1-naphthylamine], the antidepressant activity result in assay [2] is reported as “markedly high degree of antidepressant activity”.

For the compound `CN[C@@H]1CC[C@@H](c2ccccc2)c2ccccc21` (relative stereo) [trans-dl-N-methyl-4-phenyl-1,2,3,4-tetrahydro-1-naphthylamine], the antidepressant activity result in assay [2] was “markedly high degree of antidepressant activity”. With `CN[C@@H]1CC[C@@H](c2ccccc2)c2ccccc21` (relative stereo) [Trans-isomer of Example IV, trans-dl-N-methyl-4-phenyl-1,2,3,4-tetrahydro-1-naphthylamine hydrochloride], the “time course (duration) of effect” value in assay [1] (after 32 mg./kg.) was “especially long-lived”. As for `CN[C@@H]1CC[C@@H](c2ccccc2)c2ccccc21` [Trans-d-isomer of Example III, trans-d-N-Methyl-4-phenyl-1,2,3,4-tetrahydro-1-naphthylamine as the hydrochloride], in assay [3], the “duration of drug effect after administration” value was “approximately one and a half”; the “start of drug effect” value was ≤ 20 min. Also, in assay [3] (in four out of eight rats), the “effect on response rates” value is reported as “moderate to marked increase in response rates” and the “increase of response rates over normal pre-drug control levels” value is recorded as 2-6 times. Besides, the “increase of response rates over pre-drug control levels” value in assay [3] (in two other rats) is recorded as “about 1.5 times”. For the same compound, the “effect on activity counts compared with d-amphetamine sulfate and methylphenidate” value in assay [1] (10 mg./kg. i.p. versus d-amphetamine sulfate 3.2 mg./kg. and methylphenidate 10 mg./kg.) was “more pronounced than that of d-amphetamine sulfate at 3.2 mg./kg. and surpassing even that of methylphenidate at 10 mg./kg”. The “effect on activity counts” value in assay [1] (10 mg./kg. i.p., 30-60 minutes after treatment) is listed as “markedly elevated the activity counts”. In addition, the “time course (duration) of effect” value in assay [1] (10 mg./kg. versus d-amphetamine sulfate 3.2 mg./kg.) is on record as “even more prolonged in its effect than did that of d-amphetamine sulfate”. As for `CC(C)N[C@@H]1CC[C@@H](c2ccccc2)c2ccccc21` (relative stereo) [trans-dl-N-isopropyl-4-phenyl-1,2,3,4-tetrahydro-1-naphthylamine], in assay [2], the antidepressant activity result is given as “markedly high degree of antidepressant activity”. As for `CNCCCN1c2ccccc2CCc2ccccc21` [desmethylimipramine, reference compound], the hyperactive response entry in assay [1] was “failed to elicit any hyperactive response whatsoever”.

(Values after patent publication US4045488A, “Aminophenyltetralin compounds” (Pfizer Inc., priority 1976, dated 1977).)
